According to patent publication US12502380B2, “MrgprX2 antagonists for the treatment of inflammatory disorders” (Dermira, Inc., priority 2019, dated 2025):

These compounds were tested against T1, Human MrgprX2 (Homo sapiens, UniProt Q96LB1) (assay: Human MrgprX2 antagonist FLIPR intracellular calcium mobilization assay). Details: antagonist activity, recombinant hMrgpMRGPRX2 expressing cells, read-out: Human MrgprX2 Antagonist pIC50 (converted).
T1 construct: expressed in transfected cells
T1 sequence (Q96LB1 1-330): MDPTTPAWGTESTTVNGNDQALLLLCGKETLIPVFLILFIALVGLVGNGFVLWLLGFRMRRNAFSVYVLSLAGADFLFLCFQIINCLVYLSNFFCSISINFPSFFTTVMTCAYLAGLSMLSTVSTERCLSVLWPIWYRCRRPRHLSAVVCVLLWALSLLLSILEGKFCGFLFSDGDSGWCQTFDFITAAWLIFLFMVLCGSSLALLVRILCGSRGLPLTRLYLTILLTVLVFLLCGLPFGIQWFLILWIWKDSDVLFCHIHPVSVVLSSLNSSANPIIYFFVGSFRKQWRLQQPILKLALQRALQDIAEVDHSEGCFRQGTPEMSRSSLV
Assay type: cell-based
Description: Potent and selective hMrgpMRGPRX2 compounds have been generated from compounds identified during a high throughput screening (HTS) campaign and followed up with cycles of structure activity based medicinal chemistry efforts. These compounds were characterized in recombinant hMrgpMRGPRX2 expressing cells for their antagonist activity and the potency was confirmed in the human mast cell line LAD-2, where the target is endogenously expressed. The assays used to determine potencies are functional read-out looking at intracellular calcium mobilization using the FLIPR™ technology. In these FLIPR assays, we test the identified compounds using recombinant cellular systems expressing mouse MrgprB2, mouse MrgprA1, gerbil MrgpMRGPRX2 orthologue, Chinese hamster MrgpMRGPRX2 orthologue and cynomolgus monkey MrgpMRGPRX2 orthologue, respectively for orthologue activity.

| IC50 | SMILES |
| --- | --- |
| 3160 nM | CC(=O)N1CCC(C)(C(=O)Nc2ncc(Cc3ccccc3F)s2)CC1 [Compound E059, 1-acetyl-N-[5-[(2-fluorophenyl)methyl]thiazol-2-yl]-4-methyl-piperidine-4-carboxamide] |
| 631 nM | C[C@H](O)CN(C)C(=O)Nc1ncc(Oc2ccccc2C#N)s1 [Compound E174] |
| 3160 nM | CC(C)(C)OC(=O)N1CCC[C@@H]1C(=O)Nc1ncc(Cc2cccc(F)c2)s1 [Compound E035, tert-butyl (2R)-2-[[5-[(3-fluorophenyl)methyl]thiazol-2-yl]carbamoyl]pyrrolidine-1-carboxylate] |
| 50.1 nM | C[C@H](O)CN(C)C(=O)Nc1ncc(Cc2ccc(F)cc2F)s1 [Compound E141] |
| 31.6 nM | CC(CO)N(C)C(=O)Nc1ncc(Cc2cccc(F)c2)s1 (stereo not drawn) [Compound E128] |
| 3.16 nM | CCN(C[C@H](C)O)C(=O)Nc1nc(C)c(Oc2cc(F)cc(C#N)c2)s1 [Compound E209] |
| 126 nM | CC1(C(=O)Nc2ncc(Oc3ccccc3)s2)CCOCC1 [Compound E020] |
| 3.16 nM | CCN(C[C@H](C)O)C(=O)Nc1ncc(Oc2ccc(C#N)cc2)s1 [Compound E147, 3-[5-(4-cyanophenoxy)thiazol-2-yl]-1-ethyl-1-[(2S)-2-hydroxypropyl]urea] |
| 39.8 nM | O=C(Nc1ncc(Cc2cccc(F)c2)s1)N1CC(F)(F)C[C@@H]1CO [Compound E127] |
| 15.8 nM | C[C@H](O)CN(C)C(=O)Nc1ncc(Cc2ccc(F)c(F)c2)s1 [Compound E135] |
| 1580 nM | C[C@H](O)CN(C)C(=O)Nc1ncc(Oc2cncc(C#N)c2)s1 [Compound E172] |
| 251 nM | CCN(C[C@H](C)O)C(=O)Nc1ncc(Oc2cncc(C(F)(F)F)c2)s1 [Compound E180] |
| 1 nM | CCN(C[C@H](C)O)C(=O)Nc1ncc(Oc2ccc(C#N)c(F)c2)s1 [Compound E163] |
| 794 nM | O=C(Nc1ncc(Cc2cccc(F)c2)s1)N1CCOC[C@@H]1CO [Compound E124] |
| 1580 nM | C[C@H](O)CN(C)C(=O)Nc1ncc(Oc2cccc(F)c2C#N)s1 [Compound E200] |
| 126 nM | CN1CCC[C@H]1C(=O)Nc1ncc(Cc2cccc(F)c2)s1 [Compound E058, (2S)—N-[5-[(3-fluorophenyl)methyl]thiazol-2-yl]-1-methyl-pyrrolidine-2-carboxamide] |
| 631 nM | O=C(Nc1ncc(Cc2cccc(F)c2)s1)C1(CO)CC1 [Compound E029] |
| 50.1 nM | CCN(C[C@H](C)O)C(=O)Nc1ncc(Oc2cccc(C#N)c2F)s1 [Compound E197] |
| 39.8 nM | CC(C)C(=O)Nc1ncc(Cc2ccc(F)cc2F)s1 [Compound E042] |
| 39.8 nM | CCN(C[C@H](C)O)C(=O)Nc1ncc(Oc2cc(C#N)ccc2F)s1 [Compound E193] |
| 39.8 nM | CN1CCC[C@@H]1C(=O)Nc1ncc(Cc2cccc(F)c2)s1 [Compound E054, (2R)—N-[5-[(3-fluorophenyl)methyl]thiazol-2-yl]-1-methyl-pyrrolidine-2-carboxamide] |
| 63.1 nM | C[C@@]1(C(=O)Nc2ncc(Cc3cccc(Cl)c3)s2)CCOC1 (single isomer, unassigned) [Compound E050, N-[5-[(3-chlorophenyl)methyl]thiazol-2-yl]-3-methyl-tetrahydrofuran-3-carboxamide] |
| 200 nM | CC(O)CN(CC(F)(F)F)C(=O)Nc1ncc(Cc2cccc(F)c2)s1 (stereo not drawn) [Compound E119] |
| 79.4 nM | CC1(C(=O)Nc2ncc(Cc3cccc(Cl)c3)s2)CCOC1 (stereo not drawn) [Compound E033, N-[5-[(3-chlorophenyl)methyl]thiazol-2-yl]-3-methyl-tetrahydrofuran-3-carboxamide] |
| 398 nM | Cc1cccc(Cc2cnc(NC(=O)C3(C)CCOCC3)s2)c1 [Compound E024] |
| 251 nM | C[C@@H](O)CN(C)C(=O)Nc1ncc(Cc2cccc(F)c2)s1 [Compound E100] |

| IC50 | SMILES |
| --- | --- |
| 31.6 nM | NS(=O)(=O)N1CCC[C@@H]1C(=O)Nc1ncc(Cc2cccc(F)c2)s1 [Compound E057, (2R)—N-[5-[(3-fluorophenyl)methyl]thiazol-2-yl]-1-sulfamoyl-pyrrolidine-2-carboxamide] |
| 316 nM | CCN(C[C@H](C)O)C(=O)Nc1ncc(Oc2ccc(C(F)(F)F)cc2)s1 [Compound E161] |
| 1.26 nM | CCN(C[C@H](C)O)C(=O)Nc1ncc(Oc2cc(F)cc(C#N)c2)s1 [Compound E188] |
| 3980 nM | CC(C)c1nc2ccc(Oc3ccccc3)cc2[nH]1 [Compound E222, 6-phenoxy-2-(propan-2-yl)-1H-1,3-benzodiazole] |
| 7.94 nM | CC(C)C(=O)Nc1ncc(Cc2cccc(F)c2F)s1 [Compound E094] |
| 3.98 nM | C[C@@]1(C(=O)Nc2ncc(Cc3cc(F)cc(F)c3)s2)CCOC1 (single isomer, unassigned) [Compound E052, N-[5-[(3,5-difluorophenyl)methyl]thiazol-2-yl]-3-methyl-tetrahydrofuran-3-carboxamide] |
| 794 nM | O=C(Nc1ncc(Cc2cccc(F)c2)s1)N1CC[C@@H](CO)C1 [Compound E113] |
| 126 nM | CC1(C(=O)Nc2ncc(Cc3cccc(F)c3)s2)CCOC1 (stereo not drawn) [Compound E015, N-[5-[(3-fluorophenyl)methyl]thiazol-2-yl]-3-methyl-tetrahydrofuran-3-carboxamide] |
| 1260 nM | CC(C)C(=O)Nc1ncc(Nc2ccccc2)s1 [Compound E072] |
| 501 nM | C[C@H](O)CN(C)C(=O)Nc1ncc(Oc2cc(C#N)ccc2F)s1 [Compound E194] |
| 79.4 nM | NS(=O)(=O)N1CC[C@@H]1C(=O)Nc1ncc(Cc2cccc(F)c2)s1 [Compound E065] |
| 2000 nM | C[C@H](O)CN(C)C(=O)Nc1ncc(CC2CCCC2)s1 [Compound E138] |
| 316 nM | CC(C(=O)Nc1ncc(Cc2ccccc2F)s1)N1CCOCC1 (stereo not drawn) [Compound E009] |
| 2510 nM | CC1(C(=O)Nc2ncc(Cc3ccccc3F)s2)CCN(S(C)(=O)=O)CC1 [Compound E060, N-[5-[(2-fluorophenyl)methyl]thiazol-2-yl]-4-methyl-1-methylsulfonyl-piperidine-4-carboxamide] |
| 3160 nM | C[C@H](O)CN(C)C(=O)Nc1ncc(Oc2cccnc2)s1 [Compound E167] |
| 316 nM | CCN(C[C@H](C)O)C(=O)Nc1ncc(Oc2cc(F)ccc2C#N)s1 [Compound E196] |
| 158 nM | CC1(C(=O)Nc2ncc(Cc3ccc(F)c(F)c3)s2)CCOCC1 [Compound E045] |
| 3980 nM | CC(=O)N1CCC[C@@H]1C(=O)Nc1ncc(Cc2cccc(F)c2)s1 [Compound E055, (2R)-1-acetyl-N-[5-[(3-fluorophenyl)methyl]thiazol-2-yl]pyrrolidine-2-carboxamide] |
| 25.1 nM | CC1(C(=O)Nc2ncc(Cc3cc(F)cc(F)c3)s2)COC1 [Compound E047] |
| 1580 nM | C[C@H](O)CN(C)C(=O)Nc1ncc(Cc2c(F)cccc2F)s1 [Compound E142] |
| 2.51 nM | CCN(C[C@@H](C)O)C(=O)Nc1ncc(Oc2cc(F)cc(C#N)c2)s1 [Compound E210] |
| 2 nM | CC(C)C(=O)Nc1ncc(Cc2cc(F)cc(F)c2)s1 [Compound E041] |
| 200 nM | CC(O)(C(=O)Nc1ncc(Cc2cccc(F)c2)s1)C(F)(F)F (stereo not drawn) [Compound E025] |
| 1580 nM | Cc1cncc(Oc2cnc(NC(=O)N(C)C[C@H](C)O)s2)c1 [Compound E177] |
| 25.1 nM | CCN(C[C@@H](C)O)C(=O)Nc1ncc(Cc2cccc(F)c2)s1 [Compound E118] |
